These results are taken from patent publication EP4800016A1, “METTL3 INHIBITOR” (Hangzhou Bangshun Pharmaceutical Co., Ltd., priority 2023, dated 2025).

Series [1] is described as follows: Rat pharmacokinetic test, intravenous injection. The class given is in vivo. Conditions: male, SD, plasma, rats, 2 mg/kg, average of 3 rats. The protocol: 3.1 Experimental Animals: Male SD rats, weighing 190-230 g, 3 rats per compound 3.2 Experimental Design: All animals were fasted overnight (10-14 hours) the day before admin istration and fed 4 hours after admin istration. For intravenous injection, the drug vehicle was 5% DMA + 5% Solutol + 90% Saline (DMA: dimethylacetamide; Solutol: polyethyleneglycol-15-hydroxystearate; Saline: normal saline), with a dosage of 2 mg/kg and an admin istration concentration of 1 mg/mL. Blood samples were collected via the jugular vein at 5 min, 15 min, 30 min, 1 h, 2 h, 4 h, 6 h, 8 h, and 24 h after admin istration. Approximately 0.25 mL of each sample was collected, anticoagulated with EDTA-K2, placed on ice after collection, and centrifuged to separate plasma within 1 hour (6000 g, 3 min, 2-8°C). Plasma samples were stored in a - 80°Crefrigerator before analys is.
3.3 Result Analys is:Collected samples were detected using LC-MS/MS method. Pharmacokinetic parameters were calculated from blood drug concentration data at different time points using Phoenix WinNonlin 8.2.0 to obtain the average values of in vivo clearance (CL) and AUC0-t. Table 3 CL and AUC of test compounds after intravenous injection in rats

The next series concerns Kasumi-1 cells. Nature of the series: Kasumi-1 cell inhibitory activity (CellTiter-Glo, 5 days). The class given is cell-based. As to conditions: Homo sapiens, 120 h, 5 days incubation, CellTiter-Glo luminescence. The protocol:
Test compounds were dissolved in DMSO to prep are a 250×final concentration solution. The initial concentration was 10 µM with 3-fold dilution, resulting in a total of ten concentration points. 4 µL of the compound solution was added to 96 µL of cell culture medium to dilute it to 10×the final concentration. On the first day, Kasumi-1 cells (purchased from Precedo) were suspended in cell culture medium at the desired density, 90 µL of the cell suspension was added to a 96-well plate, and 10 µL of 10×compound solution was added for incubation, with a final DMSO concentration of 0.4% in each well. Incubated at 37 °C, 5% CO2 for 5 days. Before measurement after 5 days, the test plate was placed at room temperature, 50 µL of CellTiter-Glo® reagent (purchased from Promega, Cat. No. G7573) was added, mixed on a shaker for 2 minutes to lyse the cells, and incubated at room temperature for 10 minutes to stabilize the […] signal. Luminescence values were recorded using Paradigm, and the response-concentration curve was fitted with Graphpad Pr ism 8.0 to calculate IC50values. The results of each compound are shown in Table2, where A indicates <100nM, B indicates 100-1000nM, and C indicates >1000nM. [formula]
On the technique in general: In ATP-based viability assays light output follows the ATP content of the culture.

In a further series the target is T1, METTL3/14 (Homo sapiens, UniProt Q86U44).
T1 construct: purchased active motif 31570
Briefly: METTL3/14 methyltransferase activity assay (HTRF). The class given is biochemical. As to conditions: 10 concentrations, 3-fold dilution from 10 µM. The protocol: The final initial concentration of the compound was 10 µM, with 3-fold serial dilution to give a total of 10 concentrations. 100 nL of the compound was transferred to a 384-well plate and centrifuged at 1000 RPM. 2.5 µL of METTL3/14 (active motif, Cat No. 31570) was added to the test wells and incubated at 25°C for 10 min. 2.5 µL of METTL3-Biotin & SAM (GenScript) was added to the test wells andincubated at 25°C for 60 min. 2.5 µL of YTHDF1 (active motif, Cat No. 31608) was added to the test wells and centrifuged at 1000 RPM. 2.5 µL of Streptavidin-Tb (Perkin Elmer Cat No. 61SATLB) & Flag-mede (Perkin Elmer Cat No. 61FG2DLA) was added to the test wells and centrifuged at 1000 RPM. Incubated at 25°C for 60 min. HTRF was measured using a Plate reader. The results of each compound are shown in Table 1, where A+indicates <10nM, A indicates 10-100nM, B indicates 100-1000nM, and C indicates >1000nM.
For orientation: Time-resolved FRET reads energy transfer from a long-lived donor to a nearby acceptor.

pIC50: −log10 of the molar value.

T1 sequence (Q86U44 whole entry): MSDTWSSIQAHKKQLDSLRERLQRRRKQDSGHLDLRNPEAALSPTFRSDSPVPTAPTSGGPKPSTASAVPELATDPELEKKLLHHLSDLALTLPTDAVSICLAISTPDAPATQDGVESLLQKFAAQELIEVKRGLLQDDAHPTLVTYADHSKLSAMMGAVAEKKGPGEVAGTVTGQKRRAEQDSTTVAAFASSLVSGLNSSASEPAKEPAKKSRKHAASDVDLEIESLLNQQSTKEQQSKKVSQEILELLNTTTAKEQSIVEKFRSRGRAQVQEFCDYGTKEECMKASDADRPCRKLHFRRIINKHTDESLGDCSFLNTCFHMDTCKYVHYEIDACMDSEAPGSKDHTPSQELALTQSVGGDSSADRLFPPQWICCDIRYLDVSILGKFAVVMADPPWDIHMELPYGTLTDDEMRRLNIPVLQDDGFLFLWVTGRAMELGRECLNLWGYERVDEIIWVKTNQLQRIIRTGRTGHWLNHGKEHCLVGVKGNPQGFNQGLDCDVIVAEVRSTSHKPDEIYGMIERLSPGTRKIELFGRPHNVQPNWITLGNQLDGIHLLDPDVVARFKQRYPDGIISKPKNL
T1 sequence (Q9HCE5 whole entry partner): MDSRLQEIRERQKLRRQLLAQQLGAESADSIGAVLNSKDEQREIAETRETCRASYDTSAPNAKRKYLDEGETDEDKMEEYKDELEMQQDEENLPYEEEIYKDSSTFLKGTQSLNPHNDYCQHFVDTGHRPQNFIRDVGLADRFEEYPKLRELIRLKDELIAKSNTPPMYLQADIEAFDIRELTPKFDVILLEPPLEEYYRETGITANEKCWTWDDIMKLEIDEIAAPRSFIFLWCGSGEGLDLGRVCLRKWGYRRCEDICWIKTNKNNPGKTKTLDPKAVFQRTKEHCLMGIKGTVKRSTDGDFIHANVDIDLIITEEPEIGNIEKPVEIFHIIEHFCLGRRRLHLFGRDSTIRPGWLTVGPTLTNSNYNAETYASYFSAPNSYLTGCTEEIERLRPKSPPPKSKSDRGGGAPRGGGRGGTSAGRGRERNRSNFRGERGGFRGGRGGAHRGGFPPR

Broadly, the AUC(0-t) is the area under the concentration-time curve up to a stated or last time point. Low values mean less exposure, high ones more exposure. Usually clearance stands for a measure of how efficiently the substance is removed, as volume per time. Low readings indicate a low capacity for elimination, high ones a high capacity for elimination. The term pIC50 denotes −log10 of the IC50, conventionally taken in molar units. A low value points to a high IC50. In series [1], `O=C(NCc1ccc2cc(CNCC3CC(F)(F)C3)[nH]c2c1)c1cc(=O)n2cc3c(cc2n1)OCCO3` [Example 24, N-((2-((((3,3-Difluorocyclobutyl)methyl)amino)methyl)-1H-indol-6-yl)methyl)-9-oxo-2,3-dihydro-9H-[1,4]dioxino[2',3':4,5]pyrido[1,2-a]pyrimidine-7-carboxamide] displayed an AUC(0-t) of 2180 ng·h/mL and a clearance of 15.3 mL/min/kg. In the series with Kasumi-1 cells, the pIC50 was 6.00 to 7.00. On METTL3/14, the negative-log IC50 (pIC50) is more than 8.00.
The molecule `O=C(NCc1ccc2cc(CNCC3CCC3)[nH]c2c1)c1cc(=O)n2cc3c(cc2n1)OCO3` [Example 25, N-((2-(((Cyclobutylmethyl)amino)methyl)-1H-indol-6-yl)methyl)-8-oxo-8H-[1,3]dioxolo[4',5':4,5]pyrido[1,2-a]pyrimidine-6-carboxamide] returned an AUC(0-t) in series [1] of 1460 ng·h/mL. Further, the clearance in series [1] was 22.7 mL/min/kg. Moreover, the pIC50 in the series on Kasumi-1 cells is 6.00 to 7.00; at METTL3/14 it was more than 8.00.
`CC1(CNCc2cc3ccc(CNC(=O)c4cc(=O)n5cc6c(cc5n4)OCCO6)cc3[nH]2)CC(F)(F)C1` [Example 54, N-((2-((((3,3-Difluoro-1-methylcyclobutyl)methyl)amino)methyl)-1H-indol-6-yl)methyl)-9-oxo-2,3-dihydro-9H-[1,4]dioxino[2',3':4,5]pyrido[1,2-a]pyrimidine-7-carboxamide]: the results for the pIC50 with Kasumi-1 cells and at METTL3/14 were 6.00 to 7.00 and more than 8.00, respectively.
As for `[2H]C([2H])(NCc1cc2ccc(CNC(=O)c3cc(=O)n4cc5c(cc4n3)OCO5)cc2[nH]1)C1CCC1` [Example 71, N-((2-(((Cyclobutylmethyl-d2)amino)methyl)-1H-indol-6-yl)methyl)-8-oxo-8H-[1,3]dioxolo[4',5':4,5]pyrido[1,2-a]pyrimidine-6-carboxamide], the pIC50 in the series with Kasumi-1 cells is more than 7.00; at METTL3/14 it was more than 8.00.
As to `[2H]C([2H])(NCc1cc2ccc(CNC(=O)c3cc(=O)n4cc5c(cc4n3)OCO5)cc2[nH]1)C12CC(F)(C1)C2` [Example 72, N-((2-((((3-Fluorobicyclo[1.1.1]pentan-1-yl)methyl-d2)amino)methyl)-1H-indol-6-yl)methyl)-8-oxo-8H-[1,3]dioxolo[4',5':4,5]pyrido[1,2-a]pyrimidine-6-carboxamide], the pIC50 with Kasumi-1 cells is more than 7.00; against METTL3/14, more than 8.00.
With `O=C(NCc1cc2[nH]c(CNCC3CCC3)cc2cc1F)c1cc(=O)n2cc3c(cc2n1)OCO3` [Example 73, N-((2-(((Cyclobutylmethyl)amino)methyl)-5-fluoro-1H-indol-6-yl)methyl)-8-oxo-8H-[1,3]dioxolo[4',5':4,5]pyrido[1,2-a]pyrimidine-6-carboxamide], in series [1], the AUC(0-t) stood at 1440 ng·h/mL and the clearance worked out at 23 mL/min/kg. In the series on Kasumi-1 cells, this molecule showed a pIC50 of 6.00 to 7.00. The pIC50 against METTL3/14 was more than 8.00.
With `O=C(NCc1ccc2cc(CNCC34CC(CO3)C4)[nH]c2c1)c1cc(=O)n2cc3c(cc2n1)OCCO3` [Example 77, N-((2-((((2-oxabicyclo[2.1.1]hexan-1-yl)methyl)amino)methyl)-1H-indol-6-yl)methyl)-9-oxo-2,3-dihydro-9H-[1,4]dioxino[2',3':4,5]pyrido[1,2-a]pyrimidin-7-carboxamide], the pIC50 with Kasumi-1 cells is 6.00 to 7.00; against METTL3/14, more than 8.00.
For the molecule `O=C(NCc1ccc2cc(CNCC34CC(CO3)C4)[nH]c2c1)c1cc(=O)n2cc3c(cc2n1)OCO3` [Example 84, N-((2-((((2-Oxabicyclo[2.1.1]hexan-1-yl)methyl)amino)methyl)-1H-indol-6-yl)methyl)-8-oxo-8H-[1,3]dioxolo[2',3':4,5]pyrido[1,2-a]pyrimidine-6-carboxamide], the pIC50 with Kasumi-1 cells was 6.00 to 7.00; against METTL3/14, more than 8.00.
`O=C(NCc1cc2[nH]c(CNCC3CCC3)cc2cc1F)c1cc(=O)n2cc3c(cc2n1)OCCO3` [Example 85, N-((2-(((Cyclobutylmethyl)amino)methyl)-5-fluoro-1H-indol-6-yl)methyl)-9-oxo-2,3-dihydro-9H-[1,4]dioxino[2',3':4,5]pyrido[1,2-a]pyrimidine-7-carboxamide]: the results for the pIC50 with Kasumi-1 cells and at METTL3/14 were more than 7.00 and 7.00 to 8.00, respectively.
In the same order, the values of `O=C(NCc1cc2[nH]c(CNCC34CC(CO3)C4)cc2cc1F)c1cc(=O)n2cc3c(cc2n1)OCCO3` [Example 86, N-((2-((((2-Oxabicyclo[2.1.1]hexan-1-yl)methyl)amino)methyl)-5-fluoro-1H-indol-6-yl)methyl)-9-oxo-2,3-dihydro-9H-[1,4]dioxino[2',3':4,5]pyrido[1,2-a]pyrimidine-7-carboxamide] are 6.00 to 7.00 and 7.00 to 8.00.
As for `O=C(NCc1cc2[nH]c(CNCC34CC(CO3)C4)cc2cc1F)c1cc(=O)n2cc3c(cc2n1)OCO3` [Example 87, N-((2-((((2-Oxabicyclo[2.1.1]hexan-1-yl)methyl)amino)methyl)-5-fluoro-1H-indol-6-yl)methyl)-8-oxo-8H-[1,3]dioxolo[2',3':4,5]pyrido[1,2-a]pyrimidine-6-carboxamide], the pIC50 with Kasumi-1 cells was 6.00 to 7.00; against METTL3/14 it was 7.00 to 8.00.
In the same order, the values of `[2H]C([2H])(NCc1cc2cc(F)c(CNC(=O)c3cc(=O)n4cc5c(cc4n3)OCCO5)cc2[nH]1)C1CCC1` [Example 90, N-((2-(((Cyclobutylmethyl-d2)amino)methyl)-5-fluoro-1H-indol-6-yl)methyl)-9-oxo-2,3-dihydro-9H-[1,4]dioxino[2',3':4,5]pyrido[1,2-a]pyrimidine-7-carboxamide] are more than 7.00 and more than 8.00.
In the case of `[2H]C([2H])(NCc1cc2ccc(CNC(=O)c3cc(=O)n4cc5c(cc4n3)OCCO5)cc2[nH]1)C12CC(CO1)C2` [Example 91, N-((2-((((2-Oxabicyclo[2.1.1]hexan-1-yl)methyl-d2)amino)methyl)-1H-indol-6-yl)methyl)-9-oxo-2,3-dihydro-9H-[1,4]dioxino[2',3':4,5]pyrido[1,2-a]pyrimidine-7-carboxamide], the pIC50 was 6.00 to 7.00 with Kasumi-1 cells and 7.00 to 8.00 on METTL3/14.
As to `[2H]C([2H])(NCc1cc2ccc(CNC(=O)c3cc(=O)n4cc5c(cc4n3)OCO5)cc2[nH]1)C12CC(CO1)C2` [Example 92, N-((2-((((2-Oxabicyclo[2.1.1]hexan-1-yl)methyl-d2)amino)methyl)-1H-indol-6-yl)methyl)-8-oxo-8H-[1,3]dioxolo[4',5':4,5]pyrido[1,2-a]pyrimidine-6-carboxamide], the negative-log IC50 (pIC50) in the series on Kasumi-1 cells was 6.00 to 7.00; on METTL3/14, 7.00 to 8.00.
In the same order, the values of `[2H]C([2H])(NCc1cc2cc(F)c(CNC(=O)c3cc(=O)n4cc5c(cc4n3)OCO5)cc2[nH]1)C12CC(CO1)C2` [Example 93, N-((2-((((2-Oxabicyclo[2.1.1]hexan-1-yl)methyl-d2)amino)methyl)-5-fluoro-1H-indol-6-yl)methyl)-8-oxo-8H-[1,3]dioxolo[4',5':4,5]pyrido[1,2-a]pyrimidine-6-carboxamide] are 6.00 to 7.00 and 7.00 to 8.00.
For the molecule `[2H]C([2H])(NCc1cc2ccc(CNC(=O)c3cc(=O)n4cc5c(cc4n3)OCCO5)cc2[nH]1)C12CC(F)(C1)C2` [Example 95, N-((2-((((3-fluorobicyclo[1.1.1]pentan-1-yl)methyl-d2)amino)methyl)-1H-indol-6-yl)methyl)-9-oxo-2,3-dihydro-9H-[1,4]dioxino[2',3':4,5]pyrido[1,2-a]pyrimidine-7-carboxamide], the pIC50 in the series with Kasumi-1 cells was more than 7.00; on METTL3/14 it was more than 8.00.
